Where “and” joins values, the source holds several entries; their conditions need not be identical. Equal entries are not always repeated.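 Cells were grown in 96-well plates and exposed to each compound for 48 hours at five concentrations; endpoints were interpolated linearly between bracketing concentrations, or set to the highest concentration if not reached. At the GI50, growth is halved. TGI: concentration producing complete growth inhibition.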
Assays:
Experiment in all cases: NCI tumour cell line growth inhibition, 48 h
BT-549 breast = tested on: BT-549 breast
HCT-116 colon = tested on: HCT-116 colon
IGROV1 ovarian = tested on: IGROV1 ovarian
K-562 leukemia = tested on: K-562 leukemia
NCI-H460 lung = tested on: NCI-H460 lung
SF-268 CNS = tested on: SF-268 CNS
SK-MEL-2 melanoma = tested on: SK-MEL-2 melanoma
SK-MEL-28 melanoma = tested on: SK-MEL-28 melanoma
SW-620 colon = tested on: SW-620 colon
T-47D breast = tested on: T-47D breast

Compound | GI50 (BT-549 breast) | TGI (BT-549 breast) | GI50 (HCT-116 colon) | TGI (HCT-116 colon) | GI50 (IGROV1 ovarian) | TGI (IGROV1 ovarian) | GI50 (K-562 leukemia) | TGI (K-562 leukemia) | GI50 (NCI-H460 lung) | TGI (NCI-H460 lung) | GI50 (SF-268 CNS) | TGI (SF-268 CNS) | GI50 (SK-MEL-2 melanoma) | TGI (SK-MEL-2 melanoma) | GI50 (SK-MEL-28 melanoma) | TGI (SK-MEL-28 melanoma) | GI50 (SW-620 colon) | TGI (SW-620 colon) | GI50 (T-47D breast) | TGI (T-47D breast)
CNC(=O)c1ccccc1Nc1nc(Nc2ccc3c(c2OC)CCC[C@H](N2CCN(CCO)CC2)C3)ncc1Cl | 3.84 µM and 3.43 µM | 16 µM and > 10 µM | 1.3 µM and 1.05 µM | 4.24 µM and 3.95 µM | 1.02 µM and 0.801 µM | 5.75 µM and 4.96 µM | 2.25 µM and 2.51 µM | 5.94 µM and 8.55 µM | 0.892 µM and 0.574 µM | 13.3 µM and > 10 µM | 3.23 µM and 3.22 µM | 16.5 µM and > 10 µM | 1.56 µM and 0.613 µM | 5.9 µM and 2.7 µM | 1.39 µM and 1.73 µM | 3.11 µM and 4.46 µM | 0.863 µM and 0.669 µM | 11.3 µM and > 10 µM | 2.34 µM and 2.95 µM | 17.8 µM and > 10 µM
CC1(C)CCC[C@]2(C)c3ccccc3C(=O)CC12 (stereo not given in full) | 39.4 µM | > 100 µM | 35 µM | > 100 µM | 45.3 µM | > 100 µM | 41.4 µM | > 100 µM | 34.9 µM | > 100 µM | 34.3 µM | > 100 µM | 22 µM | 61.3 µM | 64.6 µM | > 100 µM | 31 µM | > 100 µM | 53.5 µM | > 100 µM
CC1SC(c2ccc(Cl)cc2Cl)N(NC(=O)C(O)c2ccccc2)C1=O (stereo not given) | > 100 µM | > 100 µM | 62 µM | > 100 µM | 22.7 µM | 76.9 µM | 39.7 µM | > 100 µM | 47.7 µM | > 100 µM | 81.3 µM | > 100 µM | > 100 µM | > 100 µM | 76.1 µM | > 100 µM | > 100 µM | > 100 µM | > 100 µM | > 100 µM
O=P(O)(O)OCC1OC(n2cnc3c(NCc4ccccc4)ncnc32)C(O)C1O (stereo not given) | 0.473 µM | 2.49 µM | 1.66 µM | > 32.1 µM | 3.52 µM | 23 µM | 2.52 µM | > 100 µM | 10.6 µM | > 59.3 µM | 2.03 µM | > 100 µM | > 23.8 µM | > 84.4 µM | 21.2 µM | > 100 µM | 1.33 µM | > 73.9 µM | 1.37 µM | 10.3 µM
O=C(O)c1ccc(SSc2ccc(C(=O)O)cn2)nc1 | – | > 100 µM | – | > 100 µM | – | > 100 µM | – | > 100 µM | – | > 100 µM | – | > 100 µM | – | > 100 µM | – | > 100 µM | – | > 100 µM | – | > 100 µM
CC1=NOC(=O)/C1=C/c1ccc2c(c1)OCO2 | – | 56.8 µM | – | > 100 µM | – | 78.5 µM | – | > 100 µM | – | > 100 µM | – | > 100 µM | – | 39 µM | – | > 100 µM | – | 60.9 µM | – | > 100 µM
CCn1c2ccccc2c2cc(C(=O)c3ccc(C)c4ccccc34)ccc21 | 0.574 µM | 5.34 µM | 0.344 µM | 14.5 µM | 0.635 µM | > 100 µM | 0.338 µM | > 100 µM | 0.356 µM | > 100 µM | 0.877 µM | > 100 µM | 0.324 µM | 1.81 µM | 0.477 µM | > 100 µM | 0.352 µM | > 100 µM | 0.76 µM | > 100 µM

From PubChem BioAssay (NCI)
